# From the NIST ThermoML archive (doi:10.1016/j.fluid.2007.06.012)
# Numbers after ± are expanded uncertainties.
# Settings: Liquid, Closed cell (Static) method
smiles,measurement,setting,value
FC(F)(F)C(F)(F)F [hexafluoroethane],vapor or sublimation pressure,243.33 K,769 ± 3 kPa
same,vapor or sublimation pressure,245.32 K,816 ± 3 kPa
same,vapor or sublimation pressure,249.31 K,928 ± 3 kPa
same,vapor or sublimation pressure,253.29 K,1048 ± 3 kPa
same,vapor or sublimation pressure,257.31 K,1183 ± 4 kPa
same,vapor or sublimation pressure,261.29 K,1328 ± 4 kPa
same,vapor or sublimation pressure,265.28 K,1489 ± 4 kPa
same,vapor or sublimation pressure,269.27 K,1659 ± 4 kPa
same,vapor or sublimation pressure,273.27 K,1847 ± 4 kPa
same,vapor or sublimation pressure,277.24 K,2050 ± 4 kPa
same,vapor or sublimation pressure,281.23 K,2270 ± 5 kPa
same,vapor or sublimation pressure,283.23 K,2387 ± 5 kPa
same,vapor or sublimation pressure,285.23 K,2509 ± 5 kPa
same,vapor or sublimation pressure,287.22 K,2636 ± 5 kPa
same,vapor or sublimation pressure,289.22 K,2769 ± 5 kPa
same,vapor or sublimation pressure,290.23 K,2839 ± 5 kPa
same,vapor or sublimation pressure,290.72 K,2873 ± 5 kPa
same,vapor or sublimation pressure,291.22 K,2909 ± 5 kPa
same,vapor or sublimation pressure,291.72 K,2946 ± 5 kPa
same,vapor or sublimation pressure,292.22 K,2982 ± 5 kPa
